Laboratory results published in ChEMBL document CHEMBL5532685 (J Nat Prod, 2024).

How the values were obtained:
[1] = molecular target: Spike glycoprotein/Angiotensin-converting enzyme 2 (Severe acute respiratory syndrome coronavirus 2, UniProt P0DTC2+Q9BYF1); assay: Inhibition of His-tagged SARS-CoV2 USA-WA1/2020 spike-RBD/biotinylated Fc-tagged ACE2 (unknown origin) protein protein interaction incubated for 1 hr by Alphascreen assay
[2] = molecular target: Replicase polyprotein 1ab (Severe acute respiratory syndrome coronavirus 2, UniProt P0DTD1); assay: Inhibition of SARS-CoV2 MPro using Dabcyl-KTSAVLQSGFRKME-Edans as substrate by fluorescence based analysis
[3] = molecular target: Programmed cell death protein 1/Programmed cell death 1 ligand 1 (Homo sapiens, UniProt Q15116+Q9NZQ7); assay: Inhibition of PD-1/PD-L1 (unknown origin) protein protein interaction; assay type: protein-complex assay
Programmed cell death protein 1/Programmed cell death 1 ligand 1, sequence (Q15116 whole entry): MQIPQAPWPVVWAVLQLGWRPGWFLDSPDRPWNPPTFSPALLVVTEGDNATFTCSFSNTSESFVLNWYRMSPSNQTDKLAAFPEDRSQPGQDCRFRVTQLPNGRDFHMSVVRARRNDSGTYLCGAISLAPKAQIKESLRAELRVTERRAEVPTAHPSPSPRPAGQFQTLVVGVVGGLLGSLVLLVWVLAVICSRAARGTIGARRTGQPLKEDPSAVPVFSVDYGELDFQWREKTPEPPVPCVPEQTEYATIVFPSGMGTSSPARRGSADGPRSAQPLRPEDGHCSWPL
Programmed cell death protein 1/Programmed cell death 1 ligand 1, sequence (Q9NZQ7 whole entry): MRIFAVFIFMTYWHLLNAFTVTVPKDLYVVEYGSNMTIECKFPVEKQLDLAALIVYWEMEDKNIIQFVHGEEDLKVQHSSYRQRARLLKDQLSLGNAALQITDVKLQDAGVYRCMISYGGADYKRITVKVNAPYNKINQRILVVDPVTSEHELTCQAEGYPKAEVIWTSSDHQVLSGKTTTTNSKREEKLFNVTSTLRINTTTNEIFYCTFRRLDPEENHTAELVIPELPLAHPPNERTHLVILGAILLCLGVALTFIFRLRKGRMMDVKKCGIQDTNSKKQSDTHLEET

[4] = molecular target: Procathepsin L (Homo sapiens, UniProt P07711); assay: Inhibition of human cathepsin L
Procathepsin L, sequence (P07711 whole entry): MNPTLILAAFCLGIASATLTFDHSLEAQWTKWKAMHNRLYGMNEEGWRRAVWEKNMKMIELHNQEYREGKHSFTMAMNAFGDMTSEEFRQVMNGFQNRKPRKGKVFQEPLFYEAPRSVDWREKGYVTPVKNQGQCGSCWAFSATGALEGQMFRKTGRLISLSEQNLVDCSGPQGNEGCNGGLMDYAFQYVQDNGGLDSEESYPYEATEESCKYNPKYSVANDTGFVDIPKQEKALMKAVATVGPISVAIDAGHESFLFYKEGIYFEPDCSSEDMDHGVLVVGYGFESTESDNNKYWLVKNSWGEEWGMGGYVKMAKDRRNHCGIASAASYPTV

[5] = molecular target: Prothrombin (Homo sapiens, UniProt P00734); assay: Inhibition of human thrombin

Spike glycoprotein/Angiotensin-converting enzyme 2, sequence (Q9BYF1 18-805 limits assumed, other chains not shown): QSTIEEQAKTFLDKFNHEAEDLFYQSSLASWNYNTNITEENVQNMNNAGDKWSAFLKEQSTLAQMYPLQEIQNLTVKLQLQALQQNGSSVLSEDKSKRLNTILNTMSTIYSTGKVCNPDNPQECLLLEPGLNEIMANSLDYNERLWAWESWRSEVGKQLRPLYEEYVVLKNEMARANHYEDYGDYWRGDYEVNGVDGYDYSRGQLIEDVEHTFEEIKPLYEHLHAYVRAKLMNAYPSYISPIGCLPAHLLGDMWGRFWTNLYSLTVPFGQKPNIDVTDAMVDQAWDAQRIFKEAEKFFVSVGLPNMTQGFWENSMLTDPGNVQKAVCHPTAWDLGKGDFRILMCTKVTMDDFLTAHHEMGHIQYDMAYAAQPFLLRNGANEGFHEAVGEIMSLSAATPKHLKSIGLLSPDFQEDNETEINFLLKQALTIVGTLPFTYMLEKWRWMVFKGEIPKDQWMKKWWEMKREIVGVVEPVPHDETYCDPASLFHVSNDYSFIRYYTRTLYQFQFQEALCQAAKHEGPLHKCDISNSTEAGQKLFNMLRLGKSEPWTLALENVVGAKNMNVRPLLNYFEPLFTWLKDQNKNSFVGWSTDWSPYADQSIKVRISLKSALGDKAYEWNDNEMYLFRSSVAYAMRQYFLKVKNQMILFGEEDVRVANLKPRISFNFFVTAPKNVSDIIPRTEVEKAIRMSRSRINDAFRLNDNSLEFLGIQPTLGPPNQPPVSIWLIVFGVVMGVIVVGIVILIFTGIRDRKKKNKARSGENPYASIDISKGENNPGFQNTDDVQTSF

SMILES | IC50 [1] [µM] | IC50 [2] [µM] | IC50 [3] [µM] | IC50 [4] [µM] | IC50 [5] [µM]
CCCCCCCCCC(C)CCC(C)C(=O)OC (configuration not stated) | > 370 | > 370 |  |  | 
CCCCCCCCCC(C)CCC(C)C(=O)OCc1ccccc1 (configuration not stated) | > 289 | > 289 |  |  | 
CCCCCCCCCC(C)CCC(C)C(=O)O (configuration not stated) |  |  | > 390 | 218 | > 390
